EC50 data for eleven compounds are collected here from US8802661B2, “C-28 amides of modified C-3 betulinic acid derivatives as HIV maturation inhibitors” (priority 2010, dated 2014).

SMILES strings stand for the structures. pEC50: −log10 of the molar value.

One experiment concerns recombinant NL4-3 virus (Renilla luciferase in nef, Gag P373S). Description: HIV Cell Culture Assay (luciferase reporter virus in MT-2 cells). Format: cell-based. To be noted: NL43. An outline of the steps: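 Virus from 293T transfection, titered in MT-2 by luciferase. MT-2 (RPMI, 10% HI-FBS) infected ± inhibitor serial dilutions, 4-5 d. Readout: Dual Luciferase premix (lysis:reagent:Stop & Glo 2:1:1), immediate luminescence.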
Usually pEC50 stands for −log10 of the EC50, conventionally taken in molar units. Consider `C=C(C)[C@@H]1CC[C@]2(C(=O)NCc3ccc(Cl)cc3)CC[C@]3(C)[C@H](CC[C@@H]4[C@@]5(C)CC=C(c6ccc(C(=O)O)cc6)C(C)(C)[C@@H]5CC[C@]43C)[C@@H]12` [Example 60, 4-((1R,3aS,5aR,5bR,7aR,11aS,11bR,13aR,13bR)-3a-(4-chlorobenzylcarbamoyl)-5a,5b,8,8,11a-pentamethyl-1-(prop-1-en-2-yl)-2,3,3a,4,5,5a,5b,6,7,7a,8,11,11a,11b,12,13,13a,13b-octadecahydro-1H-cyclopenta[a]chrysen-9-yl)benzoic acid], for which the pEC50 is 7.32. Take `C=C(C)[C@@H]1CC[C@]2(C(=O)NCCS(=O)(=O)O)CC[C@]3(C)[C@H](CC[C@@H]4[C@@]5(C)CC=C(c6ccc(C(=O)O)cc6)C(C)(C)[C@@H]5CC[C@]43C)[C@@H]12` [Example 82, sodium 4-((1R,3aS,5aR,5bR,7aR,11aS,11bR,13aR,13bR)-5a,5b,8,8,11a-pentamethyl-1-(prop-1-en-2-yl)-3a-(2-sulfonatoethylcarbamoyl)-2,3,3a,4,5,5a,5b,6,7,7a,8,11,11a,11b,12,13,13a,13b-octadecahydro-1H-cyclopenta[a]chrysen-9-yl)benzoate]: the pEC50 is 5.91.

Staying with this experiment, now noted: NL43, read-out: EC50 Group.
As for `C=C(C)[C@@H]1CC[C@]2(C(=O)NCCO)CC[C@]3(C)[C@H](CC[C@@H]4[C@@]5(C)CC=C(c6ccc(C(=O)O)cc6)C(C)(C)[C@@H]5CC[C@]43C)[C@@H]12` [Example 17, 4-((1R,3aS,5aR,5bR,7aR,11aS,11bR,13aR,13bR)-3a-(2-hydroxyethylcarbamoyl)-5a,5b,8,8,11a-pentamethyl-1-(prop-1-en-2-yl)-2,3,3a,4,5,5a,5b,6,7,7a,8,11,11a,11b,12,13,13a,13b-octadecahydro-1H-cyclopenta[a]chrysen-9-yl)benzoic acid], the negative logarithm of the EC50 (pEC50) is more than 7.00. In the case of `C=C(C)[C@@H]1CC[C@]2(C(=O)NCCN3CCCCC3)CC[C@]3(C)[C@H](CC[C@@H]4[C@@]5(C)CC=C(c6ccc(C(=O)O)cc6)C(C)(C)[C@@H]5CC[C@]43C)[C@@H]12` [Example 33, 4-((1R,3aS,5aR,5bR,7aR,11aS,11bR,13aR,13bR)-5a,5b,8,8,11a-pentamethyl-3a-(2-(piperidin-1-yl)ethylcarbamoyl)-1-(prop-1-en-2-yl)-2,3,3a,4,5,5a,5b,6,7,7a,8,11,11a,11b,12,13,13a,13b-octadecahydro-1H-cyclopenta[a]chrysen-9-yl)benzoic acid], the pEC50 was more than 7.00. Consider `C=C(C)[C@@H]1CC[C@]2(C(=O)N3CCN(C)CC3)CC[C@]3(C)[C@H](CC[C@@H]4[C@@]5(C)CC=C(c6ccc(C(=O)O)cc6)C(C)(C)[C@@H]5CC[C@]43C)[C@@H]12` [Example 10, 4-((1R,3aS,5aR,5bR,7aR,11aS,11bR,13aR,13bR)-5a,5b,8,8,11a-pentamethyl-3a-(4-methylpiperazine-1-carbonyl)-1-(prop-1-en-2-yl)-2,3,3a,4,5,5a,5b,6,7,7a,8,11,11a,11b,12,13,13a,13b-octadecahydro-1H-cyclopenta[a]chrysen-9-yl)benzoic acid], for which the negative logarithm of the EC50 (pEC50) was more than 7.00. In the case of `C=C(C)[C@@H]1CC[C@]2(C(=O)NCCN(CCO)CCO)CC[C@]3(C)[C@H](CC[C@@H]4[C@@]5(C)CC=C(c6ccc(C(=O)O)cc6)C(C)(C)[C@@H]5CC[C@]43C)[C@@H]12` [Example 76, 4-((1R,3aS,5aR,5bR,7aR,11aS,11bR,13aR,13bR)-3a-(2-(bis(2-hydroxyethyl)amino)ethylcarbamoyl)-5a,5b,8,8,11a-pentamethyl-1-(prop-1-en-2-yl)-2,3,3a,4,5,5a,5b,6,7,7a,8,11,11a,11b,12,13,13a,13b-octadecahydro-1H-cyclopenta[a]chrysen-9-yl)benzoic acid], the pEC50 is more than 7.00. Take `C=C(C)[C@@H]1CC[C@]2(C(=O)NCc3ccccn3)CC[C@]3(C)[C@H](CC[C@@H]4[C@@]5(C)CC=C(c6ccc(C(=O)O)cc6)C(C)(C)[C@@H]5CC[C@]43C)[C@@H]12` [Example 2, 4-((1R,3aS,5aR,5bR,7aR,11aS,11bR,13aR,13bR)-5a,5b,8,8,11a-pentamethyl-1-(prop-1-en-2-yl)-3a-(pyridin-2-ylmethylcarbamoyl)-2,3,3a,4,5,5a,5b,6,7,7a,8,11,11a,11b,12,13,13a,13b-octadecahydro-1H-cyclopenta[a]chrysen-9-yl)benzoic acid]: the negative logarithm of the EC50 (pEC50) is more than 7.00.

As for `C=C(C)[C@@H]1CC[C@]2(C(=O)NCCN(CC(=O)O)C(C)C)CC[C@]3(C)[C@H](CC[C@@H]4[C@@]5(C)CC=C(c6ccc(C(=O)O)cc6)C(C)(C)[C@@H]5CC[C@]43C)[C@@H]12` [Example 95, 4-((1R,3aS,5aR,5bR,7aR,11aS,11bR,13aR,13bR)-3a-(2-((carboxymethyl)(isopropyl)amino)ethylcarbamoyl)-5a,5b,8,8,11a-pentamethyl-1-(prop-1-en-2-yl)-2,3,3a,4,5,5a,5b,6,7,7a,8,11,11a,11b,12,13,13a,13b-octadecahydro-1H-cyclopenta[a]chrysen-9-yl)benzoic acid], the pEC50 was more than 7.00. Turning to `C=C(C)[C@@H]1CC[C@]2(C(=O)NCCN3CCC(F)(F)CC3)CC[C@]3(C)[C@H](CC[C@@H]4[C@@]5(C)CC=C(c6ccc(C(=O)O)c(F)c6)C(C)(C)[C@@H]5CC[C@]43C)[C@@H]12` [Example 117, 4-((1R,3aS,5aR,5bR,7aR,11aS,11bR,13aR,13bR)-3a-(2-(4,4-difluoropiperidin-1-yl)ethylcarbamoyl)-5a,5b,8,8,11a-pentamethyl-1-(prop-1-en-2-yl)-2,3,3a,4,5,5a,5b,6,7,7a,8,11,11a,11b,12,13,13a,13b-octadecahydro-1H-cyclopenta[a]chrysen-9-yl)-2-fluorobenzoic acid], the negative-log EC50 (pEC50) is more than 7.00. On the same count and under the same terms, in the case of `C=C(C)[C@@H]1CC[C@]2(C(=O)NCCc3ccc(OC)cc3)CC[C@]3(C)[C@H](CC[C@@H]4[C@@]5(C)CC=C(c6ccc(C(=O)O)cc6)C(C)(C)[C@@H]5CC[C@]43C)[C@@H]12` [Example 4, 4-((1R,3aS,5aR,5bR,7aR,11aS,11bR,13aR,13bR)-3a-(4-methoxyphenethylcarbamoyl)-5a,5b,8,8,11a-pentamethyl-1-(prop-1-en-2-yl)-2,3,3a,4,5,5a,5b,6,7,7a,8,11,11a,11b,12,13,13a,13b-octadecahydro-1H-cyclopenta[a]chrysen-9-yl)benzoic acid] it was more than 7.00; in that of `C=C(C)[C@@H]1CC[C@]2(C(=O)NCCCN3CCCC3=O)CC[C@]3(C)[C@H](CC[C@@H]4[C@@]5(C)CC=C(c6ccc(C(=O)O)cc6)C(C)(C)[C@@H]5CC[C@]43C)[C@@H]12` [Example 87, 4-((1R,3aS,5aR,5bR,7aR,11aS,11bR,13aR,13bR)-5a,5b,8,8,11a-pentamethyl-3a-(3-(2-oxopyrrolidin-1-yl)propylcarbamoyl)-1-(prop-1-en-2-yl)-2,3,3a,4,5,5a,5b,6,7,7a,8,11,11a,11b,12,13,13a,13b-octadecahydro-1H-cyclopenta[a]chrysen-9-yl)benzoic acid], more than 7.00.
